From ChEMBL document CHEMBL6114953, “De novo discovery of cyclic peptide inhibitors of IL-11 signaling” (Bioorg Med Chem, 2025)
Active and inactive are the calls of the source. The rule behind the calls is not given here. Where a SMILES comes first, the peptide text is derived from it. Bridges are numbered along the chain shown (N, C = ends). [ ]: non-standard residue; d: D form. ξ: configuration not given here. Met(O) = CS(=O)CC[C@H](N)C(=O)O; ξH = NC(Cc1c[nH]cn1)C(=O)O; Nle = CCCC[C@H](N)C(=O)O

Legend:
[1] = Inhibition of his-tagged recombinant human IL-11 (22 to 199 residues) expressed in HEK293 cells/biotinylated recombinant human IL-11Ralpha (24 to 370 residues) expressed in HEK293 cells incubated for 1 hr by AlphaLISA assay; type: cell-based
[2] = Binding affinity to CAP chip-immobilized IL-6 (unknown origin) by SPR analysis; details: Homo sapiens
[3] = molecular target: T1, Interleukin-11 (Homo sapiens) (UniProt P20809); assay: Binding affinity to CAP chip-immobilized IL-11 (unknown origin) by SPR analysis
T1 sequence (whole entry): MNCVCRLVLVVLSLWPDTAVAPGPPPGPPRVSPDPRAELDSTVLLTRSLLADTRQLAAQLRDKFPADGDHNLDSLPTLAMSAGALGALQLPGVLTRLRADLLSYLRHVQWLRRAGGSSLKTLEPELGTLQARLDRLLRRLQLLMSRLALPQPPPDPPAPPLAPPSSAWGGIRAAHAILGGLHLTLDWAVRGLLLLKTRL

[4] = molecular target: T2, Interleukin-11 receptor subunit alpha (Homo sapiens) (UniProt Q14626); assay: Binding affinity to CAP chip-immobilized biotinylated recombinant human IL-11Ralpha by SPR analysis
T2 sequence (whole entry): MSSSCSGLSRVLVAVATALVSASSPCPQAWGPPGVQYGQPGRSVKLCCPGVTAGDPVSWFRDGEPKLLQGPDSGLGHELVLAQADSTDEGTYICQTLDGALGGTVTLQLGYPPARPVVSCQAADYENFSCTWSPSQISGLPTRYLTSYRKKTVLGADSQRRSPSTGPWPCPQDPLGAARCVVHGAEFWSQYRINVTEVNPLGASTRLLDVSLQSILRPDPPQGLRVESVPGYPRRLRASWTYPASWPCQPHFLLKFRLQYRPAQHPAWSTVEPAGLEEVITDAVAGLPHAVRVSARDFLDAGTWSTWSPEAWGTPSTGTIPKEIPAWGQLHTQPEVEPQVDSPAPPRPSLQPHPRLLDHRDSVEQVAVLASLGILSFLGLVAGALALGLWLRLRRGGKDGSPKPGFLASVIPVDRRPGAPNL

Homo sapiens = organism: Homo sapiens; assay: Binding affinity to CAP chip-immobilized IL-6R (unknown origin) by SPR analysis

SMILES	Ki [1] [nM]	other results
C=C(CCCCC)[C@@H](O)[C@H](C)C(=O)N1C(=O)OC[C@@H]1C(C)C	> 28000	Activity [2]: inactive; Activity [3]: inactive; Activity [4]: inactive; Activity (Homo sapiens): inactive
CC(=O)N[C@@H](Cc1ccc(O)cc1)C(=O)N[C@@H](Cc1c[nH]c2ccccc12)C(=O)N[C@H]1CSSC[C@@H](C(=O)N[C@@H](Cc2c[nH]c3ccccc23)C(=O)N[C@@H](CCCNC(=N)N)C(N)=O)NC(=O)[C@H](C(C)C)NC(=O)[C@H]([C@@H](C)O)NC(=O)[C@H]([C@@H](C)O)NC(=O)[C@H](Cc2ccc(O)cc2)NC(=O)[C@H](Cc2ccc(O)cc2)NC(=O)[C@H](CC(C)C)NC(=O)[C@H](Cc2c[nH]cn2)NC(=O)[C@H](CO)NC1=O (Ac-YWCSHLYYTTVCWR-NH2; disulfide 3-12)	1900	–
CC(C)[C@H](NC(=O)[C@@H](NC(=O)[C@H](CCC(N)=O)NC(=O)[C@H](C)N)[C@@H](C)O)C(=O)N[C@@H](CCC(N)=O)C(=O)N[C@@H](Cc1ccccc1)C(=O)N[C@@H](Cc1ccc(O)cc1)C(=O)N[C@@H](Cc1c[nH]c2ccccc12)C(=O)N[C@H]1CSSC[C@@H](C(=O)N[C@@H](Cc2c[nH]c3ccccc23)C(=O)N[C@@H](CCCNC(=N)N)C(N)=O)NC(=O)[C@H](C(C)C)NC(=O)[C@H]([C@@H](C)O)NC(=O)[C@H]([C@@H](C)O)NC(=O)[C@H](Cc2ccc(O)cc2)NC(=O)[C@H](Cc2ccc(O)cc2)NC(=O)[C@H](CC[S+](C)[O-])NC(=O)[C@H](Cc2c[nH]cn2)NC(=O)[C@H](CO)NC1=O (stereo partly specified) (H-AQTVQFYWCSH[Met(O)]YYTTVCWR-NH2; disulfide 9-18)	320	–
CSCC[C@@H]1NC(=O)[C@H](Cc2c[nH]cn2)NC(=O)[C@H](CO)NC(=O)[C@@H](NC(=O)[C@H](Cc2c[nH]c3ccccc23)NC(=O)[C@H](Cc2ccc(O)cc2)NC(=O)[C@H](Cc2ccccc2)NC(=O)[C@H](CCC(N)=O)NC(=O)[C@@H](NC(=O)[C@@H](NC(=O)[C@H](CCC(N)=O)NC(C)=O)[C@@H](C)O)C(C)C)CSSC[C@@H](C(=O)N[C@@H](Cc2c[nH]c3ccccc23)C(=O)N[C@@H](CCCNC(=N)N)C(N)=O)NC(=O)[C@H](C(C)C)NC(=O)[C@H]([C@@H](C)O)NC(=O)[C@H]([C@@H](C)O)NC(=O)[C@H](Cc2ccc(O)cc2)NC(=O)[C@H](Cc2ccc(O)cc2)NC1=O (Ac-QTVQFYWCSHMYYTTVCWR-NH2; disulfide 8-17)	800	–
CSCC[C@@H]1NC(=O)[C@H](Cc2c[nH]cn2)NC(=O)[C@H](CO)NC(=O)[C@@H](NC(=O)[C@H](Cc2c[nH]c3ccccc23)NC(=O)[C@H](Cc2ccc(O)cc2)NC(=O)[C@H](Cc2ccccc2)NC(C)=O)CSSC[C@@H](C(=O)N[C@@H](Cc2c[nH]c3ccccc23)C(=O)N[C@@H](CCCNC(=N)N)C(N)=O)NC(=O)[C@H](C(C)C)NC(=O)[C@H]([C@@H](C)O)NC(=O)[C@H]([C@@H](C)O)NC(=O)[C@H](Cc2ccc(O)cc2)NC(=O)[C@H](Cc2ccc(O)cc2)NC1=O (Ac-FYWCSHMYYTTVCWR-NH2; disulfide 4-13)	330	–
CC(C)C[C@@H]1NC(=O)[C@@H]2CCCN2C(=O)[C@H](CC(C)C)NC(=O)[C@H](Cc2c[nH]c3ccccc23)NC(=O)[C@@H](NC(=O)[C@H](Cc2ccccc2)NC(=O)[C@H](CCC(=O)O)NC(=O)[C@@H](NC(=O)[C@@H](NC(=O)[C@H](CCC(=O)O)NC(=O)[C@H](C)N)[C@@H](C)O)C(C)C)CSSC[C@@H](C(N)=O)NC(=O)[C@H](Cc2ccccc2)NC(=O)[C@H](Cc2ccc(O)cc2)NC(=O)[C@H](Cc2c[nH]c3ccccc23)NC(=O)[C@H](Cc2c[nH]cn2)NC(=O)[C@H](CO)NC1=O (H-AETVEFCWLPLSHWYFC-NH2; disulfide 7-17)	1360	Activity [2]: inactive; Activity [3]: inactive; Activity [4]: inactive; Activity (Homo sapiens): inactive
CC(=O)N[C@@H](Cc1ccc(O)cc1)C(=O)N[C@@H](Cc1c[nH]c2ccccc12)C(=O)N[C@H]1CSSC[C@@H](C(=O)N[C@@H](Cc2c[nH]c3ccccc23)C(=O)N[C@@H](CCCNC(=N)N)C(N)=O)NC(=O)[C@H](C(C)C)NC(=O)[C@H]([C@@H](C)O)NC(=O)[C@H]([C@@H](C)O)NC(=O)[C@H](Cc2ccc(O)cc2)NC(=O)[C@H](Cc2ccc(O)cc2)NC(=O)CNC(=O)[C@H](Cc2c[nH]cn2)NC(=O)[C@H](CO)NC1=O (Ac-YWCSHGYYTTVCWR-NH2; disulfide 3-12)	1700	–
CC(C)C[C@@H]1NC(=O)[C@H](Cc2c[nH]c3ccccc23)NC(=O)[C@@H](NC(=O)[C@H](Cc2ccccc2)NC(=O)[C@H](CCC(=O)O)NC(=O)[C@@H](NC(=O)[C@@H](NC(=O)[C@H](CCC(=O)O)NC(=O)[C@H](C)N)[C@@H](C)O)C(C)C)CSSC[C@@H](C(N)=O)NC(=O)[C@H](CCC(=O)O)NC(=O)[C@H](Cc2ccc(O)cc2)NC(=O)[C@H](Cc2c[nH]c3ccccc23)NC(=O)[C@H](Cc2ccc(O)cc2)NC(=O)C(Cc2c[nH]cn2)NC(=O)[C@H](Cc2c[nH]c3ccccc23)NC(=O)[C@@H]2CCCN2C1=O (stereo partly specified) (H-AETVEFCWLPW[ξH]YWYEC-NH2; disulfide 7-17)	1300	–
Cc1c(-c2ccc(O)cc2)n(Cc2ccc(OCCN3CCCCCC3)cc2)c2ccc(O)cc12 [BAZEDOXIFENE]	11800	Activity [2]: inactive; Activity [4]: inactive; Activity (Homo sapiens): inactive
CCCC[C@@H]1NC(=O)[C@H](Cc2c[nH]cn2)NC(=O)[C@H](CO)NC(=O)[C@@H](NC(=O)[C@H](Cc2c[nH]c3ccccc23)NC(=O)[C@H](Cc2ccc(O)cc2)NC(C)=O)CSSC[C@@H](C(=O)N[C@@H](Cc2c[nH]c3ccccc23)C(=O)N[C@@H](CCCNC(=N)N)C(N)=O)NC(=O)[C@H](C(C)C)NC(=O)[C@H]([C@@H](C)O)NC(=O)[C@H]([C@@H](C)O)NC(=O)[C@H](Cc2ccc(O)cc2)NC(=O)[C@H](Cc2ccc(O)cc2)NC1=O (Ac-YWCSH[Nle]YYTTVCWR-NH2; disulfide 3-12)	900	–
CSCC[C@@H]1NC(=O)[C@H](Cc2c[nH]cn2)NC(=O)[C@H](CO)NC(=O)[C@@H](NC(=O)[C@H](Cc2c[nH]c3ccccc23)NC(=O)[C@H](Cc2ccc(O)cc2)NC(=O)[C@H](Cc2ccccc2)NC(=O)[C@H](CCC(N)=O)NC(=O)[C@@H](NC(C)=O)C(C)C)CSSC[C@@H](C(=O)N[C@@H](Cc2c[nH]c3ccccc23)C(=O)N[C@@H](CCCNC(=N)N)C(N)=O)NC(=O)[C@H](C(C)C)NC(=O)[C@H]([C@@H](C)O)NC(=O)[C@H]([C@@H](C)O)NC(=O)[C@H](Cc2ccc(O)cc2)NC(=O)[C@H](Cc2ccc(O)cc2)NC1=O (Ac-VQFYWCSHMYYTTVCWR-NH2; disulfide 6-15)	700	–
CC(C)C[C@@H]1NC(=O)[C@H](CCC(=O)O)NC(=O)[C@H](Cc2ccccc2)NC(=O)[C@H](CCC(N)=O)NC(=O)[C@@H]2CCCN2C(=O)[C@H](Cc2c[nH]c3ccccc23)NC(=O)[C@H](C(C)C)NC(=O)[C@H](Cc2ccc(O)cc2)NC(=O)[C@@H](NC(=O)[C@H](Cc2ccccc2)NC(=O)[C@H](CCC(=O)O)NC(=O)[C@@H](NC(=O)[C@@H](NC(=O)[C@H](CCC(=O)O)NC(=O)[C@H](C)N)[C@@H](C)O)C(C)C)CSSC[C@@H](C(N)=O)NC(=O)[C@H](C(C)C)NC1=O (H-AETVEFCYVWPQFELVC-NH2; disulfide 7-17)	310	–
CSCC[C@@H]1NC(=O)[C@H](Cc2c[nH]cn2)NC(=O)[C@H](CO)NC(=O)[C@@H](NC(=O)[C@H](Cc2c[nH]c3ccccc23)NC(=O)[C@H](Cc2ccc(O)cc2)NC(C)=O)CSSC[C@@H](C(=O)N[C@@H](Cc2c[nH]c3ccccc23)C(N)=O)NC(=O)[C@H](C(C)C)NC(=O)[C@H]([C@@H](C)O)NC(=O)[C@H]([C@@H](C)O)NC(=O)[C@H](Cc2ccc(O)cc2)NC(=O)[C@H](Cc2ccc(O)cc2)NC1=O (Ac-YWCSHMYYTTVCW-NH2; disulfide 3-12)	> 28000	–
CC(=O)N[C@H]1CSSC[C@@H](C(N)=O)NC(=O)[C@H](C(C)C)NC(=O)[C@H](Cc2ccc(O)cc2)NC(=O)[C@H](Cc2c[nH]c3ccccc23)NC(=O)[C@H](Cc2c[nH]c3ccccc23)NC(=O)[C@H](Cc2c[nH]cn2)NC(=O)[C@H](Cc2ccc(O)cc2)NC(=O)[C@@H]2CCCN2C(=O)[C@H](CCCCN)NC(=O)[C@H](Cc2c[nH]c3ccccc23)NC1=O (Ac-CWKPYHWWYVC-NH2; disulfide 1-11)	2500	–
CSCC[C@@H]1NC(=O)[C@H](Cc2c[nH]cn2)NC(=O)[C@H](CO)NC(=O)[C@@H](NC(C)=O)CSSC[C@@H](C(=O)N[C@@H](Cc2c[nH]c3ccccc23)C(=O)N[C@@H](CCCNC(=N)N)C(N)=O)NC(=O)[C@H](C(C)C)NC(=O)[C@H]([C@@H](C)O)NC(=O)[C@H]([C@@H](C)O)NC(=O)[C@H](Cc2ccc(O)cc2)NC(=O)[C@H](Cc2ccc(O)cc2)NC1=O (Ac-CSHMYYTTVCWR-NH2; disulfide 1-10)	> 28000	–
